Reference: PubChem BioAssay (NCI)
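Interpolation was linear, between the two tested concentrations surrounding the appropriate level; five concentrations were tested over 48 hours in 96-well plates. TGI: total growth inhibition.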

Experiments:
Assay in all cases: NCI anticancer screen, dose series, 48 h
M14 melanoma = tested on: M14 melanoma
MALME-3M melanoma = tested on: MALME-3M melanoma
SNB-75 CNS = tested on: SNB-75 CNS
KM12 colon = tested on: KM12 colon
LOX IMVI melanoma = tested on: LOX IMVI melanoma
SK-MEL-28 melanoma = tested on: SK-MEL-28 melanoma
HOP-92 NSCLC = tested on: HOP-92 NSCLC
IGROV1 ovarian = tested on: IGROV1 ovarian
A549 NSCLC = tested on: A549 NSCLC
MDA-MB-231 breast = tested on: MDA-MB-231 breast
786-0 renal = tested on: 786-0 renal
OVCAR-5 ovarian = tested on: OVCAR-5 ovarian
HOP-62 NSCLC = tested on: HOP-62 NSCLC
HT29 colon = tested on: HT29 colon
U251 CNS = tested on: U251 CNS
UACC-257 melanoma = tested on: UACC-257 melanoma
A498 renal = tested on: A498 renal
HCT-116 colon = tested on: HCT-116 colon
CAKI-1 renal = tested on: CAKI-1 renal
PC-3 prostate = tested on: PC-3 prostate
SK-OV-3 ovarian = tested on: SK-OV-3 ovarian
SK-MEL-5 melanoma = tested on: SK-MEL-5 melanoma
SNB-19 CNS = tested on: SNB-19 CNS
MDA-N = tested on: MDA-N
K-562 leukemia = tested on: K-562 leukemia
SF-295 CNS = tested on: SF-295 CNS
OVCAR-8 ovarian = tested on: OVCAR-8 ovarian
SK-MEL-2 melanoma = tested on: SK-MEL-2 melanoma
SF-268 CNS = tested on: SF-268 CNS
NCI/ADR-RES ovarian = tested on: NCI/ADR-RES ovarian
NCI-H522 lung = tested on: NCI-H522 lung
MOLT-4 leukemia = tested on: MOLT-4 leukemia
CCRF-CEM leukemia = tested on: CCRF-CEM leukemia
NCI-H23 lung = tested on: NCI-H23 lung
ACHN renal = tested on: ACHN renal
RXF 393 renal = tested on: RXF 393 renal
T-47D breast = tested on: T-47D breast
OVCAR-3 ovarian = tested on: OVCAR-3 ovarian
HS 578T breast = tested on: HS 578T breast
DU-145 prostate = tested on: DU-145 prostate
COLO 205 colon = tested on: COLO 205 colon
MDA-MB-435 = tested on: MDA-MB-435
SN12C renal = tested on: SN12C renal
EKVX NSCLC = tested on: EKVX NSCLC
TK-10 renal = tested on: TK-10 renal
BT-549 breast = tested on: BT-549 breast
SW-620 colon = tested on: SW-620 colon
UACC-62 melanoma = tested on: UACC-62 melanoma
UO-31 renal = tested on: UO-31 renal
RPMI-8226 leukemia = tested on: RPMI-8226 leukemia
OVCAR-4 ovarian = tested on: OVCAR-4 ovarian
NCI-H226 lung = tested on: NCI-H226 lung
HCT-15 colon = tested on: HCT-15 colon
MCF7 breast = tested on: MCF7 breast
SF-539 CNS = tested on: SF-539 CNS
HL-60(TB) leukemia = tested on: HL-60(TB) leukemia
NCI-H460 lung = tested on: NCI-H460 lung

SMILES: C[C@@H](CO)C1=C(O)c2ccc3c(c2C(=O)C1=O)CCCC3(C)C
- TGI (M14 melanoma): 40.6 µM
- TGI (MALME-3M melanoma): 50 µM
- TGI (SNB-75 CNS): > 100 µM
- TGI (KM12 colon): > 100 µM
- TGI (LOX IMVI melanoma): > 100 µM
- TGI (SK-MEL-28 melanoma): > 100 µM
- TGI (HOP-92 NSCLC): > 100 µM
- TGI (IGROV1 ovarian): > 100 µM
- TGI (A549 NSCLC): > 100 µM
- TGI (MDA-MB-231 breast): > 100 µM
- TGI (786-0 renal): > 100 µM
- TGI (OVCAR-5 ovarian): > 100 µM
- TGI (HOP-62 NSCLC): > 100 µM
- TGI (HT29 colon): > 100 µM
- TGI (U251 CNS): > 100 µM
- TGI (UACC-257 melanoma): > 100 µM
- TGI (A498 renal): > 100 µM
- TGI (HCT-116 colon): > 100 µM
- TGI (CAKI-1 renal): > 100 µM
- TGI (PC-3 prostate): > 100 µM
- TGI (SK-OV-3 ovarian): > 100 µM
- TGI (SK-MEL-5 melanoma): > 100 µM
- TGI (SNB-19 CNS): 68.9 µM
- TGI (MDA-N): > 100 µM
- TGI (K-562 leukemia): > 100 µM
- TGI (SF-295 CNS): > 100 µM
- TGI (OVCAR-8 ovarian): > 100 µM
- TGI (SK-MEL-2 melanoma): 84.7 µM
- TGI (SF-268 CNS): > 100 µM
- TGI (NCI/ADR-RES ovarian): > 100 µM
- TGI (NCI-H522 lung): 62.6 µM
- TGI (MOLT-4 leukemia): > 100 µM
- TGI (CCRF-CEM leukemia): 34 µM
- TGI (NCI-H23 lung): 56.1 µM
- TGI (ACHN renal): 43.2 µM
- TGI (RXF 393 renal): > 100 µM
- TGI (T-47D breast): > 100 µM
- TGI (OVCAR-3 ovarian): > 100 µM
- TGI (HS 578T breast): > 100 µM
- TGI (DU-145 prostate): > 100 µM
- TGI (COLO 205 colon): > 100 µM
- TGI (MDA-MB-435): > 100 µM
- TGI (SN12C renal): > 100 µM
- TGI (EKVX NSCLC): > 100 µM
- TGI (TK-10 renal): > 100 µM
- TGI (BT-549 breast): > 100 µM
- TGI (SW-620 colon): > 100 µM
- TGI (UACC-62 melanoma): 77.4 µM
- TGI (UO-31 renal): > 100 µM
- TGI (RPMI-8226 leukemia): > 100 µM
- TGI (OVCAR-4 ovarian): > 100 µM
- TGI (NCI-H226 lung): > 100 µM
- TGI (HCT-15 colon): > 100 µM

SMILES: CCOP(=O)(CN1CCNCCN(CP(=O)(OCC)OCC)CC1)OCC
- TGI (M14 melanoma): > 100 µM
- TGI (MALME-3M melanoma): > 30.4 µM
- TGI (SNB-75 CNS): > 100 µM
- TGI (KM12 colon): > 100 µM
- TGI (MCF7 breast): > 100 µM
- TGI (LOX IMVI melanoma): > 100 µM
- TGI (SK-MEL-28 melanoma): > 100 µM
- TGI (HOP-92 NSCLC): > 100 µM
- TGI (IGROV1 ovarian): > 100 µM
- TGI (A549 NSCLC): > 100 µM
- TGI (MDA-MB-231 breast): > 100 µM
- TGI (786-0 renal): > 100 µM
- TGI (OVCAR-5 ovarian): > 100 µM
- TGI (HOP-62 NSCLC): > 100 µM
- TGI (HT29 colon): > 100 µM
- TGI (U251 CNS): > 100 µM
- TGI (UACC-257 melanoma): > 100 µM
- TGI (A498 renal): > 100 µM
- TGI (HCT-116 colon): > 100 µM
- TGI (CAKI-1 renal): > 100 µM
- TGI (PC-3 prostate): > 100 µM
- TGI (SK-OV-3 ovarian): > 100 µM
- TGI (SK-MEL-5 melanoma): > 100 µM
- TGI (SNB-19 CNS): > 100 µM
- TGI (MDA-N): > 100 µM
- TGI (K-562 leukemia): > 100 µM
- TGI (SF-295 CNS): > 100 µM
- TGI (OVCAR-8 ovarian): > 100 µM
- TGI (SK-MEL-2 melanoma): > 100 µM
- TGI (SF-268 CNS): > 100 µM
- TGI (NCI/ADR-RES ovarian): > 100 µM
- TGI (SF-539 CNS): > 100 µM
- TGI (NCI-H522 lung): > 100 µM
- TGI (MOLT-4 leukemia): > 100 µM
- TGI (CCRF-CEM leukemia): > 31.6 µM
- TGI (NCI-H23 lung): > 100 µM
- TGI (ACHN renal): > 100 µM
- TGI (RXF 393 renal): > 100 µM
- TGI (T-47D breast): > 100 µM
- TGI (HL-60(TB) leukemia): > 100 µM
- TGI (OVCAR-3 ovarian): > 100 µM
- TGI (HS 578T breast): > 100 µM
- TGI (DU-145 prostate): > 100 µM
- TGI (COLO 205 colon): > 100 µM
- TGI (MDA-MB-435): > 100 µM
- TGI (SN12C renal): > 100 µM
- TGI (EKVX NSCLC): > 100 µM
- TGI (TK-10 renal): > 100 µM
- TGI (BT-549 breast): > 100 µM
- TGI (SW-620 colon): > 100 µM
- TGI (UACC-62 melanoma): > 100 µM
- TGI (NCI-H460 lung): > 100 µM
- TGI (UO-31 renal): > 100 µM
- TGI (RPMI-8226 leukemia): > 100 µM
- TGI (OVCAR-4 ovarian): > 100 µM
- TGI (NCI-H226 lung): > 100 µM
- TGI (HCT-15 colon): > 100 µM
